Measurements: patent US20260116920A1, “HUMAN TRANSFERRIN RECEPTOR BINDING PEPTIDE” (PEPTIDREAM INC., priority 2021, published 2026)
Starred links: 1 amine or outer side, 2 acyl side, 3 side chain; linkers in the order of their positions; H or OH if unused. Positions of bridges follow the written chain, without caps; N, C: chain ends. Non-standard residues stand in square brackets, D forms with d. Residues, ends and D or L forms follow the SMILES beside them. Groups on a side chain read outwards from the residue. *: point of attachment. Trp(1-CH2COOH) = N[C@@H](Cc1cn(CC(=O)O)c2ccccc12)C(=O)O; Nle(6-morpholino) = N[C@@H](CCCCN1CCOCC1)C(=O)O; Phe(3-COOH) = N[C@@H](Cc1cccc(C(=O)O)c1)C(=O)O; NMePhe(3-Cl) = CN[C@@H](Cc1cccc(Cl)c1)C(=O)O; Piperazinyl(4-CH2COOH) = O=C(O)CN1CCN(*)CC1; 3Pal(6-NH2) = Nc1ccc(C[C@H](N)C(=O)O)cn1; NMeY = CN[C@@H](Cc1ccc(O)cc1)C(=O)O; NH(CH2CH2O)4Me = COCCOCCOCCOCCN*; 4Pal = N[C@@H](Cc1ccncc1)C(=O)O; PEG4 = NCCOCCOCCOCCOCCC(=O)O; Carboxymethyl = O=C(O)C*; CO = O=C([*:1])[*:2]; X4 = COCC(COC)N*

Biological target: T1, human transferrin receptor (hTfR) (Homo sapiens, UniProt P02786)
T1 construct: made in house
Experiment: Evaluation of molecular interaction between transferrin receptor (hTfR) and peptide using surface plasmon resonance (SPR)
Assay type: binding
Conditions: surface plasmon resonance, binding to hTfR; KD class symbol; read-out: SPR (KD value)
Summary of the method: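 Recombinant hTfR dimer (0.5 μM) immobilized on Ni-loaded NTA chip via EDC/NHS, ethanolamine-capped. Peptides at 5–100 nM in HEPES pH 8.0 buffer with 150 mM NaCl, 0.05% Tween 20, 0.1% BSA, 1.0% DMSO, flowed by single-cycle kinetics; KD from least-squares fit of sensorgrams.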

T1 sequence (P02786 89-760 limits assumed): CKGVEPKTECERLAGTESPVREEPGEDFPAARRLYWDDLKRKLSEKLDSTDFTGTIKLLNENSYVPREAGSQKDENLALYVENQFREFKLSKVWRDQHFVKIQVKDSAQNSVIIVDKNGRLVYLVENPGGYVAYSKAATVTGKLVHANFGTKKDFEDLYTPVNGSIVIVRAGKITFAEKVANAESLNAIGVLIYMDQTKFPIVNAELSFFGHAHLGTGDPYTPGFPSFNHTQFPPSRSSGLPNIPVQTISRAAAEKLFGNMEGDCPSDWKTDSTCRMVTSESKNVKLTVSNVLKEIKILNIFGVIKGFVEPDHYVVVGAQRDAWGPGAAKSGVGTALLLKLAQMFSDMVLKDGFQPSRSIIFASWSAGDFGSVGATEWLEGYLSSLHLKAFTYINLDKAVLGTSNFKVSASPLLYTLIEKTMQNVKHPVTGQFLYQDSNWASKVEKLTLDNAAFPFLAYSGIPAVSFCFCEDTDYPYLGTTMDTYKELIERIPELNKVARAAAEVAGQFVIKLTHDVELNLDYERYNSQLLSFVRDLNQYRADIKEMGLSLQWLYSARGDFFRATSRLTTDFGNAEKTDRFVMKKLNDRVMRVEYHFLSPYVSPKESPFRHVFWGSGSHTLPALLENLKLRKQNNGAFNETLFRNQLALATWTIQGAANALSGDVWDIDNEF

Row | SMILES | Kd [nM]
1 | CC[C@H](C)[C@@H]1NC(=O)[C@H](Cc2ccc(OC)cc2)NC(=O)[C@H](Cc2ccc(O)cc2)NC(=O)[C@H](CC(N)=O)NC(=O)[C@H](Cc2cn(CC(=O)O)c3ccccc23)NC(=O)[C@H](C(C)C)NC(=O)[C@H](Cc2cccc(Cl)c2)N(C)C(=O)[C@H](C(C)C)NC(=O)[C@H](C)NC(=O)CSC[C@@H](C(=O)NCCOCCOCCOCCOCCC(N)=O)NC(=O)[C@H](Cc2ccc(O)cc2)N(C)C(=O)[C@H](Cc2ccccc2)NC(=O)[C@H](CCCNC(=N)N)NC(=O)[C@H](CCCNC(=N)N)NC(=O)[C@H]([C@@H](C)CC)NC1=O [compound 108] | < 1
2 | CC[C@H](C)[C@@H]1NC(=O)[C@H](Cc2ccc(OCC(=O)O)cc2)NC(=O)[C@H](Cc2ccc(O)cc2)NC(=O)[C@H](CC(N)=O)NC(=O)[C@H](Cc2c[nH]c3ccccc23)NC(=O)[C@H](C(C)C)NC(=O)[C@H](Cc2cccc(Cl)c2)N(C)C(=O)[C@H](C(C)C)NC(=O)[C@H](C)NC(=O)CSC[C@@H](C(=O)NCCOCCOCCOCCOCCC(N)=O)NC(=O)[C@H](Cc2ccc(O)cc2)N(C)C(=O)[C@H](Cc2ccccc2)NC(=O)[C@H](CCCNC(=N)N)NC(=O)[C@H](CCCNC(=N)N)NC(=O)[C@H]([C@@H](C)CC)NC1=O [compound 109] | < 1
3 | CC[C@H](C)[C@@H]1NC(=O)[C@H](Cc2ccc(OCC(=O)O)cc2)NC(=O)[C@H](Cc2ccc(O)cc2)NC(=O)[C@H](CC(N)=O)NC(=O)[C@H](Cc2cn(CC(=O)O)c3ccccc23)NC(=O)[C@H](C(C)C)NC(=O)[C@H](Cc2cccc(Cl)c2)N(C)C(=O)[C@H](C(C)C)NC(=O)[C@H](C)NC(=O)CSC[C@@H](C(=O)NCCOCCOCCOCCOCCC(N)=O)NC(=O)[C@H](Cc2ccc(O)cc2)N(C)C(=O)[C@H](Cc2ccccc2)NC(=O)[C@H](CCCNC(=N)N)NC(=O)[C@H](CCC(=O)NCCOCCOCCOCCOC)NC(=O)[C@H]([C@@H](C)CC)NC1=O [compound 110] | 1 to 100
4 | CC[C@H](C)[C@@H]1NC(=O)[C@H](Cc2ccc(OCC(=O)O)cc2)NC(=O)[C@H](Cc2ccc(O)cc2)NC(=O)[C@H](CC(N)=O)NC(=O)[C@H](Cc2cn(CC(=O)O)c3ccccc23)NC(=O)[C@H](C(C)C)NC(=O)[C@H](Cc2cccc(Cl)c2)N(C)C(=O)[C@H](C(C)C)NC(=O)[C@H](C)NC(=O)CSC[C@@H](C(=O)NCCOCCOCCOCCOCCC(N)=O)NC(=O)[C@H](Cc2ccc(O)cc2)N(C)C(=O)[C@H](Cc2ccccc2)NC(=O)[C@H](CCCNC(=N)N)NC(=O)[C@H](CCC(=O)NC(COC)COC)NC(=O)[C@H]([C@@H](C)CC)NC1=O [compound 111] | 1 to 100
5 | CC[C@H](C)[C@@H]1NC(=O)[C@H](Cc2ccc(OCC(=O)O)cc2)NC(=O)[C@H](Cc2ccc(O)cc2)NC(=O)[C@H](CC(N)=O)NC(=O)[C@H](Cc2c[nH]c3ccccc23)NC(=O)[C@H](C(C)C)NC(=O)[C@H](Cc2cccc(Cl)c2)N(C)C(=O)[C@H](C(C)C)NC(=O)[C@H](C)NC(=O)CSC[C@@H](C(=O)NCCOCCOCCOCCOCCC(N)=O)NC(=O)[C@H](Cc2ccc(O)cc2)N(C)C(=O)[C@H](Cc2ccccc2)NC(=O)[C@H](CCCNC(=N)N)NC(=O)[C@H](CCC(=O)NCCOCCOCCOCCOCCOCCOCCOCCOC)NC(=O)[C@H]([C@@H](C)CC)NC1=O [compound 112] | < 1
6 | CC[C@H](C)[C@@H]1NC(=O)[C@H](Cc2ccc(OCC(=O)O)cc2)NC(=O)[C@H](Cc2ccc(O)cc2)NC(=O)[C@H](CC(N)=O)NC(=O)[C@H](Cc2c[nH]c3ccccc23)NC(=O)[C@H](C(C)C)NC(=O)[C@H](Cc2cccc(Cl)c2)N(C)C(=O)[C@H](C(C)C)NC(=O)[C@H](C)NC(=O)CSC[C@@H](C(=O)NCCOCCOCCOCCOCCC(N)=O)NC(=O)[C@H](Cc2ccc(O)cc2)N(C)C(=O)[C@H](Cc2ccccc2)NC(=O)[C@H](CCCNC(=N)N)NC(=O)[C@H](CCC(=O)NCCOCCOCCOCCOC)NC(=O)[C@H]([C@@H](C)CC)NC1=O [compound 113] | 1 to 100
7 | CC[C@H](C)[C@@H]1NC(=O)[C@H](Cc2ccc(OCC(=O)O)cc2)NC(=O)[C@H](Cc2ccc(O)cc2)NC(=O)[C@H](CC(N)=O)NC(=O)[C@H](Cc2c[nH]c3ccccc23)NC(=O)[C@H](C(C)C)NC(=O)[C@H](Cc2cccc(Cl)c2)N(C)C(=O)[C@H](C(C)C)NC(=O)[C@H](C)NC(=O)CSC[C@@H](C(=O)NCCOCCOCCOCCOCCC(N)=O)NC(=O)[C@H](Cc2ccc(O)cc2)N(C)C(=O)[C@H](Cc2cccc(C(=O)O)c2)NC(=O)[C@H](CCCNC(=N)N)NC(=O)[C@H](CCC(=O)NC(COC)COC)NC(=O)[C@H]([C@@H](C)CC)NC1=O [compound 114] ({CH2CO}-AV[NMePhe(3-Cl)]VWNYY(Carboxymethyl)IIE(X4)R[Phe(3-COOH)][NMeY]C[PEG4]-NH2; thioether N-15) | < 1

The remaining lines, values ahead:

Row | Kd [nM] | SMILES
8 | 1 to 100 | CC[C@H](C)[C@@H]1NC(=O)[C@H](Cc2ccc(OCC(=O)O)cc2)NC(=O)[C@H](Cc2ccc(O)cc2)NC(=O)[C@H](CC(N)=O)NC(=O)[C@H](Cc2cn(CC(=O)O)c3ccccc23)NC(=O)[C@H](C(C)C)NC(=O)[C@H](Cc2cccc(Cl)c2)N(C)C(=O)[C@H](C(C)C)NC(=O)[C@H](C)NC(=O)CSC[C@@H](C(=O)NCCOCCOCCOCCOCCC(N)=O)NC(=O)[C@H](Cc2ccc(O)cc2)N(C)C(=O)[C@H](Cc2ccccc2)NC(=O)[C@H](CCCCNC(=O)N2CCN(CC(=O)O)CC2)NC(=O)[C@H](CCC(=O)NCCOCCOCCOCCOC)NC(=O)[C@H]([C@@H](C)CC)NC1=O [compound 115] ({CH2CO}-AV[NMePhe(3-Cl)]V[Trp(1-CH2COOH)]NYY(Carboxymethyl)IIE(NH(CH2CH2O)4Me)K([CO-Piperazinyl(4-CH2COOH)])F[NMeY]C[PEG4]-NH2; thioether N-15)
9 | 1 to 100 | CC[C@H](C)[C@@H]1NC(=O)[C@H](Cc2ccc(OCC(=O)O)cc2)NC(=O)[C@H](Cc2ccc(O)cc2)NC(=O)[C@H](CC(N)=O)NC(=O)[C@H](Cc2c[nH]c3ccccc23)NC(=O)[C@H](C(C)C)NC(=O)[C@H](Cc2cccc(Cl)c2)N(C)C(=O)[C@H](C(C)C)NC(=O)[C@H](C)NC(=O)CSC[C@@H](C(=O)NCCOCCOCCOCCOCCC(N)=O)NC(=O)[C@H](Cc2ccc(O)cc2)N(C)C(=O)[C@H](Cc2ccccc2)NC(=O)[C@H](CCCCNC(=O)N2CCN(CC(=O)O)CC2)NC(=O)[C@H](CCC(=O)NCCOCCOCCOCCOC)NC(=O)[C@H]([C@@H](C)CC)NC1=O [compound 116] ({CH2CO}-AV[NMePhe(3-Cl)]VWNYY(Carboxymethyl)IIE(NH(CH2CH2O)4Me)K([CO-Piperazinyl(4-CH2COOH)])F[NMeY]C[PEG4]-NH2; thioether N-15)
10 | 1 to 100 | CC[C@H](C)[C@@H]1NC(=O)[C@H](Cc2ccc(OCC(=O)O)cc2)NC(=O)[C@H](Cc2ccc(N)nc2)NC(=O)[C@H](CC(N)=O)NC(=O)[C@H](Cc2cn(CC(=O)O)c3ccccc23)NC(=O)[C@H](C(C)C)NC(=O)[C@H](Cc2cccc(Cl)c2)N(C)C(=O)[C@H](C(C)C)NC(=O)[C@H](C)NC(=O)CSC[C@@H](C(=O)NCCOCCOCCOCCOCCC(N)=O)NC(=O)[C@H](Cc2ccc(O)cc2)N(C)C(=O)[C@H](Cc2ccncc2)NC(=O)[C@H](CCCNC(=N)N)NC(=O)[C@H](CCC(=O)NCCOCCOCCOCCOC)NC(=O)[C@H]([C@@H](C)CC)NC1=O [compound 117]
11 | 1 to 100 | CC[C@H](C)[C@@H]1NC(=O)[C@H](Cc2ccc(OCC(=O)O)cc2)NC(=O)[C@H](Cc2ccc(N)nc2)NC(=O)[C@H](CC(N)=O)NC(=O)[C@H](Cc2c[nH]c3ccccc23)NC(=O)[C@H](C(C)C)NC(=O)[C@H](Cc2cccc(Cl)c2)N(C)C(=O)[C@H](C(C)C)NC(=O)[C@H](C)NC(=O)CSC[C@@H](C(=O)NCCOCCOCCOCCOCCC(N)=O)NC(=O)[C@H](Cc2ccc(O)cc2)N(C)C(=O)[C@H](Cc2ccncc2)NC(=O)[C@H](CCCCNC(=O)N2CCN(CC(=O)O)CC2)NC(=O)[C@H](CCC(=O)NCCOCCOCCOCCOC)NC(=O)[C@H]([C@@H](C)CC)NC1=O [compound 118] ({CH2CO}-AV[NMePhe(3-Cl)]VWN[3Pal(6-NH2)]Y(Carboxymethyl)IIE(NH(CH2CH2O)4Me)K([CO-Piperazinyl(4-CH2COOH)])[4Pal][NMeY]C[PEG4]-NH2; thioether N-15)
12 | < 1 | CC[C@H](C)[C@@H]1NC(=O)[C@H](Cc2ccc(OCC(=O)O)cc2)NC(=O)[C@H](Cc2ccc(O)cc2)NC(=O)[C@H](CC(N)=O)NC(=O)[C@H](Cc2cn(CC(=O)O)c3ccccc23)NC(=O)[C@H](C(C)C)NC(=O)[C@H](Cc2cccc(Cl)c2)N(C)C(=O)[C@H](C(C)C)NC(=O)[C@H](C)NC(=O)CSC[C@@H](C(=O)NCCOCCOCCOCCOCCC(N)=O)NC(=O)[C@H](Cc2ccc(O)cc2)N(C)C(=O)[C@H](Cc2ccccc2)NC(=O)[C@H](CCCCN2CCOCC2)NC(=O)[C@H](CCC(=O)NCCOCCOCCOCCOC)NC(=O)[C@H]([C@@H](C)CC)NC1=O [compound 119] ({CH2CO}-AV[NMePhe(3-Cl)]V[Trp(1-CH2COOH)]NYY(Carboxymethyl)IIE(NH(CH2CH2O)4Me)[Nle(6-morpholino)]F[NMeY]C[PEG4]-NH2; thioether N-15)
13 | 1 to 100 | CC[C@H](C)[C@@H]1NC(=O)[C@H](Cc2ccc(OCC(=O)O)cc2)NC(=O)[C@H](Cc2ccc(O)cc2)NC(=O)[C@H](CC(N)=O)NC(=O)[C@H](Cc2c[nH]c3ccccc23)NC(=O)[C@H](C(C)C)NC(=O)[C@H](Cc2cccc(Cl)c2)N(C)C(=O)[C@H](C(C)C)NC(=O)[C@H](C)NC(=O)CSC[C@@H](C(=O)NCCOCCOCCOCCOCCC(N)=O)NC(=O)[C@H](Cc2ccc(O)cc2)N(C)C(=O)[C@H](Cc2ccccc2)NC(=O)[C@H](CCCCN2CCOCC2)NC(=O)[C@H](CCC(=O)NCCOCCOCCOCCOC)NC(=O)[C@H]([C@@H](C)CC)NC1=O [compound 120]
14 | 1 to 100 | CC[C@H](C)[C@@H]1NC(=O)[C@H](Cc2ccc(OCC(=O)O)cc2)NC(=O)[C@H](Cc2ccc(O)cc2)NC(=O)[C@H](CC(N)=O)NC(=O)[C@H](Cc2c[nH]c3ccccc23)NC(=O)[C@H](C(C)C)NC(=O)[C@H](Cc2cccc(Cl)c2)N(C)C(=O)[C@H](C(C)C)NC(=O)[C@H](C)NC(=O)CSC[C@@H](C(=O)NCCOCCOCCOCCOCCC(N)=O)NC(=O)[C@H](Cc2ccc(O)cc2)N(C)C(=O)[C@H](Cc2ccccc2)NC(=O)[C@H](CCCCN)NC(=O)[C@H](CCC(=O)NCCOCCOCCOCCOC)NC(=O)[C@H]([C@@H](C)CC)NC1=O [compound 121] ({CH2CO}-AV[NMePhe(3-Cl)]VWNYY(Carboxymethyl)IIE(NH(CH2CH2O)4Me)KF[NMeY]C[PEG4]-NH2; thioether N-15)
